Key:
Tonsillar T cells [1] = test: DNA fragmentation (DNA laddering) in T cells; assay type: cell-based, human
Protocol: Tonsillar T cells (A, B, and D) and Jurkat cells (C and E) were treated with LAC (10 μM for T cells and 6 μM for Jurkat cells). LAC was added at the beginning of the culture or 40 h after T cell activation as indicated. The cells were harvested at the time points as shown. They were evaluated for their viability with trypan blue exclusion (A, B, and C), and for their mode of cell death according to DNA fragmentation (D and E).
We next employed DNA laddering to study the mode of cell death caused by LAC, and the result of this experiment also reflected the degree of cell death after different treatments. […] After 24 h of LAC treatment, the ladders became less discrete, and this probably reflected further DNA breakdown.
The assay was performed according to a protocol described by Liu et al (Liu et al., 1997, Cell. 89:175) with some modifications. Briefly, 2-6 million cells were re-suspended in 50 μl PBS followed by 300 μl lysis buffer (100 mM Tris-HCl, pH 8.0, 5 mM EDTA, 0.2 M NaCl. 0.2% w/v SDS, and 0.2 mg/ml proteinase K). After overnight incubation at 37° C., 350 μl of 3M NaCl was added to the mixture and cell debris was removed by centrifugation at 13000 g for 20 min at room temperature. DNA in the supernatant was precipitated with an equal volume of 100% ethanol. […]

Tonsillar T cells [2] = test: Electron microscopy of T cells; assay type: cell-based, human; settings: LAC 10 μM, 24 h
Protocol: A and B: Morphology of resting T cells treated with LAC. Tonsillar T cells were culture in the absence (A) or presence (B) of LAC ([…]) for 24 h, and the cells were examined by EM.
C and D: Morphology of activated T cells treated with LAC. Tonsillar T cells were first activated with PHA (2 μg/ml) for 40 h. The cells were then cultured in the absence (C) or presence (D) of LAC (10 μM) for additional 24h, and were examined with EM.
(§1) Electron microscopy was also employed to examine the mode of cell death induced by LAC. The resting T cells (cells cultured in medium, FIG. 3A), activated T cells (40 h after PHA activation, FIG. 3C), and Jurkat cells (FIG. 3E) were all healthy looking. […] The resting T cells treated with LAC (10 μM) for 24 h were still healthy (FIG. 3B).
(§2) T cells and Jurkat cells were examined by electron microscopy as described by Tsao and Duguid (Tsao et al., 1987, Exp. Cell Res. 168:365).

Jurkat cells = test: Electron microscopy of Jurkat cells; assay type: cell-based; settings: LAC 6 μM; 24 h
Protocol: E and F: Morphology of Jurkat cell treated with LAC. Jurkat cells were cultured in the absence (E) or presence (F) of LAC (6 μM) for 24 h and were evaluated with EM. Arrows indicate condensed nuclei.
as §1, §2

[3] = tested on: mouse peritoneal exudate macrophages; test: LPS-induced nitric oxide production by macrophages (nitrite, Griess reagent); assay type: cell-based; settings: 2 μg/ml LPS; lactacystin at different concentrations
Protocol: Nitric oxide production by the macrophages was measured according to the […] concentrations in the supernatants.
BALB/c mice were injected i.p. with 3 ml of 3% thioglycollate broth. Three days later, peritoneal exudate macrophages of the mice were harvested and washed at 170 g for 10 min at 4° C. The macrophages were cultured in Teflon vials (2 cm in diameter) at 4×10^6/2 ml with various reagents (LPS, 2 μg/ml; IFNγ, 100 u/ml; LAC, 0.62-5 μM for the nitric oxide assay and 5 μM for the Northern blot assay).
The nitrite concentration in the culture supernatant was measured as a way to indirectly reflect the nitric oxide level following a method described by Ding et al (Ding et al., 1988, J. Immunology 141:2407). Release of reactive nitrogen intermediates and reactive oxygen intermediates form mouse peritoneal macrophages: comparison of activation cytokines and evidence for independent production. Briefly, 100 μl of supernatants collected from 48 h macrophage cultures was incubated with an equal volume of the Griess reagent (1% sulfanimide/0.1% naphthylethylene diamine dihydrochloride/2.5% H3PO4) at room temperature for 10 min in 96-well microtitration plates, the O.D. was measured at 550 nm. Sodium nitrite of various concentrations were used to construct standard curves.

Cyclin E-associated CDK = test: Immunoprecipitation kinase assay, Cyclin E-associated CDK; assay type: cell-based, human; settings: PHA-activated T cells; LAC 10 μM added once at 0 h
Protocol: Tonsillar T cells were activated with PHA (2 μg/ml) for a period as indicated in each graph. LAC (10 μM) was added once at 0 h. The cells were harvested at 16 h, 24 h, or 40 h as indicated. An equal amount of lysate protein ([…]) was precipitated with rabbit anti-CDK4, anti-CDK2 or anti-Cyclin E antisera (2.5 μg Ab/sample). The immune complexes were assayed for their kinase activities using histone H1 as a substrate. (A) CDK4 kinase activity. (B) CDK2 kinase activity. (C) Cyclin E-associated CDK activity. The membrane in (C) was subsequently hybridized with anti-Cyclin E (1 μg/ml) followed by ^125I-protein A for the evaluation of the protein level of Cyclin E.
Since at the late G1 phase Cyclin E is the predominant partner of CDK2 (Sherr, 1993, Cell 73:1059), we next examined the Cyclin E-associated CDK activity.
Lymphocytes were lysed by a lysis buffer as used in the immunoblotting (Chen et al., 1996, supra), and cleared lysates were quantitated for their protein content. For immunoprecipitation, 50 μl of rabbit antisera against CDK2, CDK4 or Cyclin E were added to the lysates equivalent to 20 or 40 μg protein depending on the experiment. […] The proteins were then transferred to PVDF membranes and the signals were detected by autoradiography.

## CC(=O)N[C@@H](CSC(=O)[C@]1([C@@H](O)C(C)C)NC(=O)[C@H](C)[C@@H]1O)C(=O)O [LAC, lactacystin]
Tonsillar T cells [1]; activated T cells (40 h post PHA), LAC for additional 9 h
  DNA breakdown (DNA laddering): clear DNA ladders
Tonsillar T cells [1]; resting T cells, 10 μM LAC, 24 h
  DNA breakdown (DNA laddering): no apparent DNA breakdown
Tonsillar T cells [2]; activated T cells (40 h after PHA)
  nuclear condensation by electron microscopy: frequently observed
Tonsillar T cells [2]; resting T cells
  morphology by electron microscopy: still healthy
Jurkat cells
  nuclear condensation by electron microscopy: frequently observed
[3]
  LPS-induced NO production: effectively repress
Cyclin E-associated CDK
  Cyclin E-associated kinase activity: almost completely inhibited
